Laboratory results published in the supplement of paper PMC10307832.

What was measured:
Assay in all cases: relative viability (nuclei count vs DMSO), 5 days (fraction); higher = more cells survive
[1] = compound: C/C(=N\NC(=S)N1CCC1)/C2=CC=CC=N2 + CC1(C)CCC(c2ccc(Cl)cc2)=C(CN2CCN(c3ccc(C(=O)NS(=O)(=O)c4ccc(N[C@H](CCN5CCOCC5)CSc5ccccc5)c(S(=O)(=O)C(F)(F)F)c4)cc3)CC2)C1 [Navitoclax] (partner 0.5 µM)
Procedure, shortened: (§1)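 Lung cancer cell lines were pin-tool dosed in 1536-well plates on the day after seeding, with either a lone drug or a fixed anchor-drug dose plus five library-drug doses (not always all listed) in √10 steps. Nuclei were counted on 4× images after 5 days. Relative viability is the ratio of treated-well to vehicle-well nuclei counts, with each value a median of duplicate plates.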

[2] = compound: C/C(=N\NC(=S)N1CCC1)/C2=CC=CC=N2 + CCNC(=O)c1noc(-c2cc(C(C)C)c(O)cc2O)c1-c1ccc(CN2CCOCC2)cc1 [Luminespib] (partner 0.01 µM)
Procedure, shortened: as §1

[3] = compound: C/C(=N\NC(=S)N1CCC1)/C2=CC=CC=N2 + COc1cc2c(Oc3ccc(NC(=O)C4(C(=O)Nc5ccc(F)cc5)CC4)cc3F)ccnc2cc1OCCCN1CCOCC1 [Foretinib] (partner 0.25 µM)
Procedure, shortened: as §1

[4] = compound: C/C(=N\NC(=S)N1CCC1)/C2=CC=CC=N2 + C[C@]1(O)C[C@@H](c2nc(-c3ccc4ccc(-c5ccccc5)nc4c3)c3c(N)nccn32)C1 [Linsitinib] (partner 1 µM)
Procedure, shortened: as §1

Cell Line | relative viability ([1]; first compound 0.05 µM) | relative viability ([1]; first compound 0.1581 µM) | relative viability ([1]; first compound 0.5 µM) | relative viability ([1]; first compound 1.581 µM) | relative viability ([1]; first compound 5 µM) | relative viability ([2]; first compound 0.05 µM) | relative viability ([2]; first compound 0.1581 µM) | relative viability ([2]; first compound 0.5 µM) | relative viability ([2]; first compound 1.581 µM) | relative viability ([2]; first compound 5 µM) | relative viability ([3]; first compound 0.05 µM) | relative viability ([3]; first compound 0.1581 µM) | relative viability ([3]; first compound 0.5 µM) | relative viability ([3]; first compound 1.581 µM) | relative viability ([3]; first compound 5 µM) | relative viability ([4]; first compound 0.05 µM) | relative viability ([4]; first compound 0.1581 µM) | relative viability ([4]; first compound 0.5 µM) | relative viability ([4]; first compound 1.581 µM) | relative viability ([4]; first compound 5 µM)
LU99A | 0.196 | 0.181 | 0.139 | 0.154 | 0.187 | 0.15 | 0.116 | 0.152 | 0.164 | 0.148 | 0.276 | 0.189 | 0.181 | 0.186 | 0.189 | 0.189 | 0.132 | 0.117 | 0.155 | 0.172
LXF-289 | 0.431 | 0.361 | 0.248 | 0.193 | 0.108 | 0.169 | 0.132 | 0.177 | 0.153 | 0.126 | 0.422 | 0.31 | 0.294 | 0.311 | 0.121 | 0.508 | 0.325 | 0.248 | 0.226 | 0.131
NCI-H23 | 0.139 | 0.186 | 0.117 | 0.135 | 0.171 | 0.151 | 0.149 | 0.204 | 0.206 | 0.204 | 0.226 | 0.262 | 0.196 | 0.181 | 0.209 | 0.134 | 0.196 | 0.13 | 0.124 | 0.151
NCI-H322M | 0.268 | 1.21 | 0.208 | 0.281 | 0.277 | 0.314 | 0.327 | 0.289 | 0.263 | 0.309 | 0.282 | 0.32 | 0.31 | 0.295 | 0.336 | 0.291 | 0.876 | 0.197 | 0.245 | 0.319
NCI-H441 | 0.374 | 0.188 | 0.205 | 0.174 | 0.15 | 0.205 | 0.158 | 0.251 | 0.181 | 0.164 | 0.314 | 0.236 | 0.238 | 0.174 | 0.167 | 0.145 | 0.15 | 0.117 | 0.0833 | 0.108
NCI-H460 | 0.0277 | 0.0183 | 0.0198 | 0.0147 | 0.0062 | 0.0193 | 0.0163 | 0.025 | 0.0173 | 0.0171 | 0.1 | 0.06 | 0.0602 | 0.0533 | 0.0171 | 0.0136 | 0.0148 | 0.0172 | 0.0108 | 0.005
NCI-H520 | 0.19 | 0.212 | 0.301 | 0.151 | 0.166 | 0.194 | 0.21 | 0.199 | 0.21 | 0.235 | 0.153 | 0.162 | 0.159 | 0.17 | 0.184 | 0.164 | 0.145 | 0.123 | 0.116 | 0.169
NCI-H596 | 0.66 | 0.38 | 0.226 | 0.274 | 0.161 | 0.433 | 0.673 | 0.246 | 0.222 | 0.235 | 0.461 | 0.725 | 0.208 | 0.199 | 0.272 | 0.912 | 0.344 | 0.251 | 0.208 | 0.257
